Entries after “also recorded” stand apart in the source; their conditions may differ.
Experiments:
Format in all cases: cell-based
SK-N-SH cells [1] = assay: Lamin A level by immunostaining after anti-cancer drug treatment; conditions: SK-N-SH cells remaining attached after 24 h; DOX 1 μM, Etop 10 μM; vs DMSO; FIG. 19a-b
Description: Nanopillar arrays were cleaned and sterilized by air plasma and UV exposure before cell culture. The nanochip was then coated with fibronectin ([…], Sigma-Aldrich) for 30 minutes under 37° C. The SK-N-SH cells were seeded on the nanostructures after coating and grown in Eagle's Minimum Essential Medium (MEM) supplemented with 2 mM L-glutamine (Gibco), 1% MEM Non-Essential Amino Acids (NEAA) (Gibco), 10% fetal bovine serum (FBS) (Life Technologies) and 100 U ml^−1 penicillin and […] streptomycin (Life Technologies) in a standard incubator at 37° C. with 5% CO2. Drug treatment was done after overnight incubation, the SK-N-SH cells on nanostructures are treated with Etoposide (ETOP) (Sigma), Doxorubicin (DOX) (Sigma) or Dimethyl sulfoxide (DMSO) (Sigma). […]
(§1) Fluorescence imaging and live cell imaging were done by confocal microscopy (Zeiss LSM 800 with Airyscan or a spinning disc confocal microscope (SDC) that is built around a Nikon Ti2 inverted microscope equipped with a Yokogawa CSU-W1 confocal spinning head). […] The live cell imaging and subsequent fluorescence imaging were done by SDC and the image acquisition and processing was controlled by MetaMorph (Molecular Device) software.

SK-N-SH cells [2] = assay: Nanopillar-guided subnuclear anisotropicity after anti-cancer drug treatment; conditions: SK-N-SH on nanopillar arrays, 24 h, DOX 1 μM, Etop 10 μM; for fraction of cells with dominant isotropic ring features and low deformation coherency: DMSO control 0.262±0.160, FIG. 19e; for pillar coherency: DMSO control 0.3853±0.1448, FIG. 19d
Description: Nanopillar arrays were cleaned and sterilized by air plasma and UV exposure before cell culture. The nanochip was then coated with fibronectin ([…], Sigma-Aldrich) for 30 minutes under 37° C. The SK-N-SH cells were seeded on the nanostructures after coating and grown in Eagle's Minimum Essential Medium (MEM) supplemented with 2 mM L-glutamine (Gibco), 1% MEM Non-Essential Amino Acids (NEAA) (Gibco), 10% fetal bovine serum (FBS) (Life Technologies) and 100 U ml^−1 penicillin and […] streptomycin (Life Technologies) in a standard incubator at 37° C. with 5% CO2. Drug treatment was done after overnight incubation, the SK-N-SH cells on nanostructures are treated with Etoposide (ETOP) (Sigma), Doxorubicin (DOX) (Sigma) or Dimethyl sulfoxide (DMSO) (Sigma). After 24-hour incubation, the treated cells and untreated cells were fixed with 4% Paraformaldehyde (PFA) Solution in PBS (Boster biological technology AR1068) for 15 minutes for subsequent immunostaining.
The nuclear morphology in SK-N-SH cells were visualized by immunostaining lamin A and lamin B1. The lamin A and vimentin level in cells were characterized by immunostaining lamin A and vimentin. Cells were cultured on nanopillars and incubated overnight before fixation with pre-warmed 4% Paraformaldehyde (PFA) in PBS (Boster biological technology AR1068) for 15 minutes at room temperature. After washing with PBS for three times, the cells were permeabilized in 0.5% Triton X-100 (Sigma) in PBS for 15 minutes, followed by blocking with 5% bovine serum albumin (BSA) (Sigma) in PBS for 1 hour. Subsequently, samples were incubated with primary antibodies (anti-lamin A, Abcam, ab26300; anti-lamin B1, Abcam, ab16048; anti-vimentin, Sigma, V5255.) at 1:400 dilution at room temperature for 1 hour or 4° C. overnight. […]
as §1
The guided subnuclear irregularities were characterized by measurement of their anisotropicity. […] After thresholding the cropped images of lamin A channel using the masks, the coherency, an indicator for anisotropy property, of the nanopillar-guided nuclear features was measured using orientationJ (a plugin function in ImageJ).

MDA-MB-231 cells [3] = assay: Nanopillar-guided subnuclear deformation anisotropy (coherency) after drug treatment
MCF-7 cells [4] = assay: as above; conditions: MCF-7 on nanopillar arrays, treated vs DMSO; FIG. 9c-d
Description: Prior to cell culture, the nanostructured chips were cleaned by air plasma for 10 min and exposed to UV for 15 min Subsequently, the nanostructured substrates were coated with fibronectin (2 ug/ml, Sigma-Aldrich) for 30 minutes at 37° C. After coating, cell culture was performed on the substrates. All the cell lines used in this work were maintained in the Dulbecco's Modified Eagle Medium (DMEM) (Gibco) supplemented with 10% fetal bovine serum (FBS) (Life Technologies) and 1% Penicillin-Streptomycin (Life Technologies) in a standard incubator at 37° C. with 5% CO2. […]
Imaging of the fluorescently labeled cells on nanopillar arrays was performed using laser scanning confocal microscopy (Zeiss LSM 800 with Airyscan). […] Live cell imaging and the subsequent fluorescence imaging was performed using a spinning disc confocal microscope (SDC) that is built around a Nikon Tit inverted microscope equipped with a Yokogawa CSU-W1 confocal spinning head, a Plan-Apo objective (100×1.45-NA), a back-illuminated sCMOS camera (Orca-Fusion; Hamamatsu). […]
Anisotropicity of nanopillar-guided subnuclear shape irregularities was measured on nanopillar arrays. […] Then, the anisotropicity of the subnuclear shape irregularities was measured as coherency, an indicator for anisotropy property, using orientationJ (a plugin function in ImageJ).

MCF-7 cells [5] = assay: Wound healing assay (migration rate); conditions: MCF-7, treatment for 24 h vs DMSO, p value=0.7440; FIG. 9e-f
Description: (§2) Cells were maintained in 35 mm dishes for each cell line until approximately 90% confluent. Scratch was made in the confluent monolayer of cells with a sterile […] pipette tip, and fresh culture medium was replaced. Brightfield microscopic pictures were taken of the same field at 24 hours. Migration rate was measured by quantifying the closure area within the same time frame using ImageJ.

MDA-MB-231 cells [6] = assay: Wound healing assay (migration rate); conditions: MDA-MB-231, treatment for 24 h vs DMSO, p value=0.0363; FIG. 9e-f
Description: as §2

| SMILES | lamin A level (in words) (SK-N-SH cells [1]) | fraction of cells with dominant isotropic ring features and low deformation coherency (SK-N-SH cells [2]) | pillar coherency (SK-N-SH cells [2]) | lowest concentration at which pillar coherency value and fraction of line-deformation cells responded (MDA-MB-231 cells [3]; MDA-MB-231, DMSO, 1 μM and 10 μM tested, FIG. 14) [µM] | pillar coherency value (MDA-MB-231 cells [3]; MDA-MB-231 on nanopillar arrays (500 nm diameter, 3 μm pitch), 24-hour treatment, DMSO control 0.4218±0.1305, FIG. 9c) | fraction of line-deformation cells (MDA-MB-231 cells [3]; MDA-MB-231 on nanopillar arrays, 24-hour treatment, line = cell coherency >0.3, DMSO control 0.9333±0.1155, FIG. 9d) | change in nuclear deformation coherency / line deformation (in words) (MDA-MB-231 cells [3]; MDA-MB-231 on nanopillar arrays, treated vs DMSO) | change in anisotropy (coherency) of induced nuclear deformation (in words) (MCF-7 cells [4]) | migration speed change (in words) (MCF-7 cells [5]) | migration rate change (in words) (MDA-MB-231 cells [6]) |
| --- | --- | --- | --- | --- | --- | --- | --- | --- | --- | --- |
| COc1cccc2c1C(=O)c1c(O)c3c(c(O)c1C2=O)C[C@@](O)(C(=O)CO)C[C@@H]3O[C@H]1C[C@H](N)[C@H](O)[C@H](C)O1 [DOX, doxorubicin] | significantly high lamin A level | 0.607±0.152 | 0.3057±0.1862 |  |  |  |  |  |  |  |
| COc1cc([C@@H]2c3cc4c(cc3[C@@H](O[C@@H]3O[C@@H]5CO[C@@H](C)O[C@H]5[C@H](O)[C@H]3O)[C@H]3COC(=O)[C@H]23)OCO4)cc(OC)c1O [Etop, etoposide] | significantly high lamin A level | 0.772±0.079 | 0.2606±0.1564 |  |  |  |  |  |  |  |
| COc1cc(/C=C/C(=O)CC(=O)/C=C/c2ccc(O)c(OC)c2)ccc1O [curcumin] |  |  |  | 1 | 0.2426±0.1570 | 0.2646±0.2695 | significant decreases in nuclear deformation coherency; also recorded: significantly less line deformation | no significant coherency changes; also recorded: No significant change | do not show significant changes in migration speed | lower migration rate |

From patent publication US20230410294A1, “METHOD FOR GRADING THE NUCLEAR MORPHOLOGY OF A TUMOR” (Nanyang Technological University, priority 2020, published 2023)
